Results on 13 compounds are retold here after PubChem BioAssay (NCI).

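48-hour exposure; five concentrations; linearly interpolated endpoints. TGI: total growth inhibition.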 A value given as a limit tells only on which side of the number the result lay.

Assay in all cases: NCI anticancer screen, dose series, 48 h
Assay [1] deals with SK-MEL-5 melanoma.
For assay [2], the system named is ACHN renal.
Assay [3] has as its system SK-OV-3 ovarian.
Assay [4] deals with CCRF-CEM leukemia.
For assay [5], the system named is A498 renal.
In assay [6] the test system is HS 578T breast.
For assay [7], the system named is T-47D breast.
Assay [8] has as its system MCF7 breast.
Assay [9] relates to OVCAR-3 ovarian.
Assay [10] concerns HOP-92 NSCLC.

As to `CC(C)(C)c1cc2c(O)c(c1)Cc1cc(C(C)(C)C)cc(c1O)Cc1cc(C(C)(C)C)cc(c1O)Cc1cc(C(C)(C)C)cc(c1O)Cc1cc(C(C)(C)C)cc(c1O)Cc1cc(C(C)(C)C)cc(c1O)Cc1cc(C(C)(C)C)cc(c1O)Cc1cc(C(C)(C)C)cc(c1O)C2`, the TGI in assay [1], in assay [2], in assay [3], in [4], in [5] and in assay [6] was above 50 µM each time. For the same compound, the TGI in assay [7], in [8], in assay [9] and in assay [10] was above 50 µM in each case.
On to `CC1=CC(=O)CC(C)(C)C1/C=C/C(C)=C/C=C/C(C)=C/C=C/C=C(C)/C=C/C=C(C)/C=C/C1=C(C)CC(O)CC1(C)C` (centres undefined), for which the TGI was above 100 µM in [1]; 74.3 µM in assay [2]; above 100 µM in assay [3]; above 100 µM in [4]; above 100 µM in [5]; above 100 µM in assay [6]. The TGI in assay [7] is above 100 µM; in [8] it was 45.3 µM; in [9], 72.1 µM; in assay [10] it was 70.9 µM.
For `COc1ccc(/C=C2\CCC/C(=C\c3ccc(O)c(CN4CCCCC4)c3)C2=O)cc1`, the TGI in assay [1] was 39.5 µM; in [2], above 82.7 µM; in [3] it was 40.7 µM; in assay [4], above 100 µM; in [5], 47.1 µM; in [6] it was above 100 µM. In addition, the TGI in assay [7] is above 73.8 µM; in assay [8], 28.5 µM; in [9] it was 46.3 µM; in [10], 51.6 µM.
Take `COc1ccc2cc(-c3nc(N)nc(N4N=C(C)CC4(C)C)n3)c(=N)oc2c1`: the TGI in [1] is 30.1 µM; in assay [2], 31.8 µM; in assay [3], 53.9 µM; in assay [4], 41.4 µM; in assay [5] it was 82.1 µM; in assay [6] it was 66.4 µM. Besides, the TGI in [7] is 38.9 µM; in assay [8], 44.2 µM; in [9] it was 28.5 µM; in assay [10], 60.5 µM.
As for `COc1cc(-c2[o+]c3cc(O)cc(O)c3cc2O)cc(O)c1O`, the TGI in assay [1] was above 100 µM; in assay [2] it was above 100 µM; in assay [3] it was above 100 µM; in [4], 75.9 µM; in assay [5], above 100 µM; in [6], above 100 µM. Besides, the TGI in assay [7] was above 100 µM; in [8], 46.3 µM; in assay [9], above 100 µM; in assay [10], above 100 µM.
Consider `CCOC1Oc2ccccc2-c2nc(SC)ncc21` (centres undefined), for which the TGI in assay [1], in assay [2], in assay [3], in assay [4], in assay [5] and in [6] was above 100 µM each time. Further, the TGI in assay [7], in [8], in [9] and in [10] was above 100 µM throughout.
Take `CCN(CC)Cc1c(/C=C\c2cc(OC)c(OC)c(OC)c2)ccc(OC)c1O`: the TGI was above 83.7 µM in assay [1]; above 100 µM in assay [2]; 10.2 µM in assay [3]; above 100 µM in assay [4]; 17.4 µM in [5]; 6.22 µM in assay [6]. Also, the TGI in [7] was above 100 µM; in assay [8], 99.4 µM; in assay [9] it was 6.49 µM; in assay [10], above 100 µM.
Consider `Nc1nc2c(ncn2Cc2ccccc2CO)c(=O)[nH]1`, for which the TGI in assay [1], in assay [2], in assay [3], in assay [4], in [5] and in [6] was above 100 µM each time. Besides, the TGI in assay [7], in [8], in assay [9] and in [10] was above 100 µM in each case.
For the compound `c1ccc2c(c1)CCc1[nH]c3c(c1-2)-c1ccccc1CC3`, the TGI in assay [1], in [2], in [3], in assay [4], in assay [5] and in [6] was above 100 µM each time. For the same compound, the TGI in assay [7], in assay [8], in assay [9] and in assay [10] was above 100 µM in each case.
As for `O=c1[nH]c(=O)n(C2OC(CO)C(O)C2O)cc1Oc1ccccc1` (centres undefined), the TGI in [1], in assay [2], in assay [3], in assay [4], in assay [5] and in [6] was above 100 µM throughout. Also, the TGI in assay [7], in assay [8], in assay [9] and in assay [10] was above 100 µM each time.
For `O=C1C=C(OCCCCl)C(=O)c2c(O)ccc(O)c21`, the TGI came out at 0.306 µM in assay [1]; 2.96 µM in [2]; 3.85 µM in [3]; 3.75 µM in assay [4]; 3.57 µM in [5]; 6.56 µM in [6]. Besides, the TGI in assay [7] is 4.63 µM; in [8], 0.438 µM; in assay [9], 1.38 µM; in assay [10], 2.89 µM.
With `Cc1cc(S(=O)(=O)/N=C(/[N-]S(=O)(=O)c2ccc(Cl)cc2)[n+]2ccc(N(C)C)cc2)c(SCC(=O)O)cc1Cl`, the TGI in [2], in assay [3], in assay [4], in assay [5], in assay [6] and in [7] was above 100 µM throughout. The TGI in [8] is above 100 µM; in [9] it was above 100 µM; in [10], 54.3 µM.
In the case of `Cc1cccc(-c2cc(=O)c3c(C)cc(C)nc3[nH]2)c1`, the TGI in assay [1] was 15.8 µM; in assay [2], above 100 µM; in [3], above 100 µM; in assay [4] it was above 86.5 µM; in assay [5], 29.3 µM; in assay [6], above 20.3 µM. The TGI in assay [7] was above 100 µM; in [8], above 100 µM; in assay [9] it was 4.6 µM; in assay [10], above 100 µM.
